According to ChEMBL document CHEMBL3588767, “Inhibitory activities of biflavonoids against amyloid-β peptide 42 cytotoxicity in PC-12 cells” (Bioorg Med Chem Lett, 2015):

Tests used:
[1] = Neuroprotective activity against 0.1 uM amyloid beta 42-induced toxicity in rat PC12 cells assessed as cell viability at 10 uM after 24 hrs by MTT assay; format: functional, PC-12
[2] = Neuroprotective activity against 0.1 uM amyloid beta 42-induced toxicity in rat PC12 cells assessed as cell viability after 24 hrs by MTT assay; format: functional, cell-based; settings: PC-12, 24 h
[3] = Neuroprotective activity against 0.1 uM amyloid beta 42-induced toxicity in rat PC12 cells assessed as cell viability at 50 uM after 24 hrs by MTT assay; format: functional, PC-12

Row | Compound | Activity [1] [%] | EC50 [2] [µM] | Activity [3] [%]
1 | COc1cc(O)c2c(=O)cc(-c3ccc(OC)c(-c4c(O)cc(O)c5c(=O)cc(-c6ccc(O)cc6)oc45)c3)oc2c1 [GINKGETIN] | 59.8 | – | –
2 | COc1ccc(-c2cc(=O)c3c(O)cc(O)c(-c4cc(-c5cc(=O)c6c(O)cc(OC)cc6o5)ccc4O)c3o2)cc1 [PODOCARPUSFLAVONE B] | 76.4 | 10.8 | –
3 | COc1ccc(-c2cc(=O)c3c(O)cc(OC)c(-c4c(OC)cc(O)c5c(=O)cc(-c6ccc(OC)cc6)oc45)c3o2)cc1 | 46.7 | – | –
4 | COc1cc(O)c2c(=O)cc(-c3ccc(Oc4c(OC)cc5oc(-c6ccc(O)cc6)cc(=O)c5c4O)cc3)oc2c1 | 55.5 | – | –
5 | COc1ccc(-c2cc(=O)c3c(O)cc(O)c(-c4cc(-c5cc(=O)c6c(O)cc(OC)cc6o5)ccc4OC)c3o2)cc1 [SCIADOPITISIN] | 83.1 | 9.84 | 100
6 | O=c1cc(-c2ccc(O)cc2)oc2c(-c3c(O)cc(O)c4c(=O)cc(-c5ccc(O)cc5)oc34)c(O)cc(O)c12 [CUPRESSUFLAVONE] | 31.7 | – | –
7 | COc1cc(O)c2c(=O)cc(-c3ccc(O)c(-c4c(OC)cc(O)c5c(=O)cc(-c6ccc(O)cc6)oc45)c3)oc2c1 | 52.6 | – | –
8 | COc1ccc(-c2cc(=O)c3c(O)cc(O)c(-c4cc(-c5cc(=O)c6c(O)cc(O)cc6o5)ccc4O)c3o2)cc1 [PODOCARPUSFLAVONE A] | 49.3 | – | –
9 | COc1ccc(-c2cc(=O)c3c(O)cc(O)cc3o2)cc1-c1c(OC)cc(O)c2c(=O)cc(-c3ccc(O)cc3)oc12 | 56.5 | – | –
10 | O=c1cc(-c2ccc(O)cc2)oc2cc(O)cc(O)c12 [APIGENIN] | 41 | – | –
11 | COc1cc2oc(-c3ccc(O)cc3)cc(=O)c2c(O)c1Oc1ccc(-c2cc(=O)c3c(O)cc(O)cc3o2)cc1 | 65.7 | – | –
12 | O=c1cc(-c2ccc(O)c(-c3c(O)cc(O)c4c(=O)cc(-c5ccc(O)cc5)oc34)c2)oc2cc(O)cc(O)c12 [AMENTOFLAVONE] | 37.6 | – | –
13 | COc1ccc(-c2cc(=O)c3c(O)cc(OC)c(-c4cc(-c5cc(=O)c6c(O)cc(O)cc6o5)ccc4O)c3o2)cc1 [7'',4'''-dimethylamentoflavone] | 55.3 | – | –
14 | O=c1cc(-c2ccc(Oc3c(O)cc4oc(-c5ccc(O)cc5)cc(=O)c4c3O)cc2)oc2cc(O)cc(O)c12 [HINOKIFLAVONE] | 38.7 | – | –
15 | COc1cc2oc(-c3ccc(O)cc3)cc(=O)c2c(O)c1-c1cc(-c2cc(=O)c3c(O)cc(O)cc3o2)ccc1O | 38.5 | – | –
16 | O=C(O[C@@H]1Cc2c(O)cc(O)cc2O[C@@H]1c1cc(O)c(O)c(O)c1)c1cc(O)c(O)c(O)c1 [EPIGALOCATECHIN GALLATE] | 49.5 | – | –
17 | COc1cc(O)c2c(=O)cc(-c3ccc(O)cc3)oc2c1-c1cc(-c2cc(=O)c3c(O)cc(O)cc3o2)ccc1O [SOTETSUFLAVONE] | 34.2 | – | –
18 | COc1ccc(-c2cc(=O)c3c(O)cc(OC)c(-c4cc(-c5cc(=O)c6c(O)cc(O)cc6o5)ccc4OC)c3o2)cc1 [KAYAFLAVONE] | 80.5 | 5.29 | 100
19 | COc1ccc(-c2cc(=O)c3c(O)cc(O)c(-c4cc(-c5cc(=O)c6c(O)cc(O)cc6o5)ccc4OC)c3o2)cc1 [ISOGINKGETIN] | 83.1 | 5.18 | –
20 | COc1ccc(-c2cc(=O)c3c(O)cc(OC)c(-c4cc(-c5cc(=O)c6c(O)cc(OC)cc6o5)ccc4O)c3o2)cc1 [HEVEAFLAVONE] | 45.1 | – | –
21 | COc1ccc(-c2cc(=O)c3c(O)cc(O)cc3o2)cc1-c1c(O)cc(O)c2c(=O)cc(-c3ccc(O)cc3)oc12 [BILOBETIN] | 44.7 | – | –
22 | COc1ccc(-c2cc(=O)c3c(O)cc(OC)c(-c4cc(-c5cc(=O)c6c(O)cc(OC)cc6o5)ccc4OC)c3o2)cc1 | 49.9 | – | –
23 | COc1cc(O)c2c(=O)cc(-c3ccc(O)c(-c4c(O)cc(O)c5c(=O)cc(-c6ccc(O)cc6)oc45)c3)oc2c1 [SEQUOIAFLAVONE] | 39.3 | – | –
24 | COc1cc(O)c2c(=O)cc(-c3ccc(OC)c(-c4c(OC)cc(O)c5c(=O)cc(-c6ccc(O)cc6)oc45)c3)oc2c1 | 65.3 | – | –
